# Results published in ChEMBL document CHEMBL1146131, “3D-QSAR studies of farnesyltransferase inhibitors: a comparative molecular field analysis approach” (Bioorg Med Chem Lett, 2006).
# pIC50: −log10 of the molar value.
# Target: Protein farnesyltransferase (Homo sapiens, UniProt P49354+P49356)
# Experiment: Inhibition of FTase
# Type: protein-complex assay
row,Compound,pIC50
1,Cn1cncc1C(OCc1ccc(C#N)cc1C(=O)Nc1cccc(Cl)c1)c1ccc(C#N)cc1 (stereo not given),6.12
2,Cn1cncc1C(OCc1ccc(C#N)cc1-c1cccc(Cl)c1)c1ccc(C(F)(F)F)cc1 (stereo not given),5.95
3,CCOc1ccc(-c2cc(C#N)ccc2COC(c2ccc(C#N)cc2)c2cncn2C)cc1 (stereo not given),5.92
4,COc1cccc(-c2cc(NS(C)(=O)=O)ccc2COC(c2ccc(C#N)cc2)c2cncn2C)c1 (stereo not given),4.45
5,N#Cc1ccc(C(OCc2ccc(C#N)cc2-c2ccc3c(c2)OCO3)c2cnccc2Cl)cc1 (stereo not given),4.82
6,COC(=O)c1ccc(COC(c2ccc(C#N)cc2)c2cncn2C)c(-c2cccc(OC)c2)c1 (stereo not given),4.88
7,Cn1cncc1C(OCc1ccc(C#N)cc1NS(=O)(=O)c1cccs1)c1ccc(C#N)cc1 (stereo not given),6.05
8,Cn1cncc1C(OCc1ccc(C#N)cc1-c1cccc(Cl)c1)c1ccc(C#N)cc1F (stereo not given),6.11
9,Cn1cncc1C(OCc1ccc(C#N)cc1-c1ccc2c(c1)OC(F)(F)O2)c1ccc(C#N)cc1 (stereo not given),5.95
10,Cn1cncc1C(OCc1ccc(C#N)cc1NCc1cc(F)cc(F)c1)c1ccc(C#N)cc1 (stereo not given),6.21
11,COc1cccc(-c2cc(C#N)ccc2COC(c2ccc(C#N)c(Cl)c2)c2cncn2C)c1 (stereo not given),6.01
12,CCOc1cccc(-c2cc(Cl)ccc2COC(c2ccc(C#N)cc2)c2cncn2C)c1 (stereo not given),5.95
13,Cn1cncc1C(OCc1ccc(Cl)cc1-c1cccc(Cl)c1)c1ccc(C#N)cc1 (stereo not given),6.09
14,Cc1ncc(C(OCc2ccc(C#N)cc2-c2cccc(Cl)c2)c2ccc(C#N)cc2)n1C (stereo not given),5.69
15,COCC(=O)Nc1ccc(COC(c2ccc(C#N)cc2)c2cncn2C)c(-c2cccc(OC)c2)c1 (stereo not given),4.95
16,COc1cccc(-c2cc(Cl)ccc2COC(c2ccc(C#N)cc2)c2cncn2C)c1 (stereo not given),6.04
17,Cn1cncc1C(OCc1ccc(C#N)cc1-c1ccc2c(c1)OCO2)c1ccc(C#N)cc1 (stereo not given),6.06
18,Cn1cncc1C(OCc1ccc(Cl)cc1-c1ccc(Cl)cc1)c1ccc(C#N)cc1 (stereo not given),5.31
19,Cn1cncc1C(OCc1ccc(C#N)cc1NS(=O)(=O)c1cccc2ccccc12)c1ccc(C#N)cc1 (stereo not given),5.58
20,Cn1cncc1C(OCc1ccc(C#N)cc1-c1cccc(Cl)c1)c1ccc(C#N)cc1 (stereo not given),6.06

row,Compound,pIC50
1,Cn1cncc1C(OCc1ccc(C#N)cc1NC(=O)c1ccccc1)c1ccc(C#N)cc1 (stereo not given),5.30
2,COc1ccc(-c2cc(C#N)ccc2COC(c2ccc(C#N)cc2)c2cncn2C)cc1 (stereo not given),6.01
3,COCc1cccc(-c2cc(C#N)ccc2COC(c2ccc(C#N)cc2)c2cncn2C)c1 (stereo not given),6.72
4,Cn1cncc1C(OCc1ccc(C#N)cc1-c1cccc(Cl)c1)c1ccc(C#N)c(F)c1 (stereo not given),6.35
5,Cn1cncc1C(OCc1ccc(C#N)cc1-c1cccc2ccccc12)c1ccc(C#N)cc1 (stereo not given),6.02
6,Cn1cncc1C(OCc1ccc(C#N)cc1-c1cc(F)cc(F)c1)c1ccc(C#N)cc1 (stereo not given),6.00
7,Cn1cncc1C(OCc1ccc(C#N)cc1-c1cccc(OC(F)(F)F)c1)c1ccc(C#N)cc1 (stereo not given),6.07
8,Cc1ccc(-c2cc(C#N)ccc2COC(c2ccc(C#N)cc2)c2cncn2C)cc1 (stereo not given),5.95
9,COc1cccc(-c2cc([N+](=O)[O-])ccc2COC(c2ccc(C#N)cc2)c2cncn2C)c1 (stereo not given),5.95
10,Cc1ncc(C(OCc2ccc(C#N)cc2-c2ccc3c(c2)OCO3)c2ccc(C#N)cc2)n1C (stereo not given),5.79
11,COc1cccc(-c2cc(N)ccc2COC(c2ccc(C#N)cc2)c2cncn2C)c1 (stereo not given),4.39
12,COc1cccc(-c2cc(C#N)ccc2COC(c2ccc(Cl)cc2)c2cncn2C)c1 (stereo not given),5.69
13,COc1cccc(-c2cc(C=O)ccc2COC(c2ccc(C#N)cc2)c2cncn2C)c1 (stereo not given),5.79
14,Cc1ccc(S(=O)(=O)Nc2cc(C#N)ccc2COC(c2ccc(C#N)cc2)c2cncn2C)cc1 (stereo not given),6.00
15,N#Cc1ccc(C(OCc2ccc(C#N)cc2-c2cccc(Cl)c2)c2cncs2)cc1 (stereo not given),5.39
16,COc1cccc(-c2cc(C(=O)O)ccc2COC(c2ccc(C#N)cc2)c2cncn2C)c1 (stereo not given),4.08
17,Cn1cncc1C(OCc1ccc(C#N)cc1-c1cccc2cccnc12)c1ccc(C#N)cc1 (stereo not given),5.28
18,Cn1cncc1C(OCc1ccc(Cl)cc1-c1ccccc1Cl)c1ccc(C#N)cc1 (stereo not given),5.05
19,Cn1cncc1C(OCc1ccc(C#N)cc1C(=O)Nc1ccccc1)c1ccc(C#N)cc1 (stereo not given),5.65
20,CCOc1cccc(-c2cc(C#N)ccc2COC(c2ccc(C#N)cc2)c2cncn2C)c1 (stereo not given),6.16
